Assay results from ChEMBL document CHEMBL5442175, “EUbOPEN Chemogenomics Library - PDSP Secondary Binding” (2024).

Key:
[1] = target: Sigma intracellular receptor 2 (Homo sapiens, UniProt Q5BJF2); test: (§1) PDSP Secondary Binding target: TMEM97 - Compounds are tested at 10 uM concentration, plate are incubated at room temperature in the dark for 90 minutes. Reaction are stopped by vacuum filtration onto 0.3% polyethyleneimine soaked filter mats using Filtermate harvester. Scintillation cocktail is then melted onto microwave-dried filters on a hot plate and the radio activity is counted in Microbia counter.
[2] = target: Beta-3 adrenergic receptor (Homo sapiens, UniProt P13945); test: as §1, with “ADRB3” for “TMEM97”
Translocator protein = Translocator protein (Homo sapiens, UniProt P30536); test: as §1, with “TSPO” for “TMEM97”
[3] = target: Beta-2 adrenergic receptor (Homo sapiens, UniProt P07550); test: as §1, with “ADRB2” for “TMEM97”
[4] = target: 5-hydroxytryptamine receptor 1B (Homo sapiens, UniProt P28222); test: as §1, with “HTR1B” for “TMEM97”
[5] = target: 5-hydroxytryptamine receptor 5A (Homo sapiens, UniProt P47898); test: as §1, with “HTR5A” for “TMEM97”
[6] = target: Sodium-dependent noradrenaline transporter (Homo sapiens, UniProt P23975); test: as §1, with “SLC6A2” for “TMEM97”
[7] = target: T1, Alpha-2A adrenergic receptor (Homo sapiens, UniProt P08913); test: as §1, with “ADRA2A” for “TMEM97”
T1 sequence (P08913 whole entry): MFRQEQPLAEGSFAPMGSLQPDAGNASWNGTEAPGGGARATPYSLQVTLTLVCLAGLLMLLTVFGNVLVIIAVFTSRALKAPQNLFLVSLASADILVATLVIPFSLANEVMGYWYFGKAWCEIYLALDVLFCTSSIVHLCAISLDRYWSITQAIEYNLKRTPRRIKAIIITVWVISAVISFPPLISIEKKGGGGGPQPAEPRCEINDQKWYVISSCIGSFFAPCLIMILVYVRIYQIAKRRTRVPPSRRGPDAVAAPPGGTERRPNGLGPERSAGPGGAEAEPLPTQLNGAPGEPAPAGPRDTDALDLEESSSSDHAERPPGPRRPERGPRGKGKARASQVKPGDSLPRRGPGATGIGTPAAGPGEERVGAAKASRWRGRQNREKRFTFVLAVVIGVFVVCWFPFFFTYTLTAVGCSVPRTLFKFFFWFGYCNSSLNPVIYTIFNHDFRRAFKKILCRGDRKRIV

[8] = target: 5-hydroxytryptamine receptor 6 (Homo sapiens, UniProt P50406); test: as §1, with “HTR6” for “TMEM97”
D(2) dopamine receptor = D(2) dopamine receptor (Homo sapiens, UniProt P14416); test: as §1, with “DRD2” for “TMEM97”
[9] = target: 5-hydroxytryptamine receptor 1E (Homo sapiens, UniProt P28566); test: as §1, with “HTR1E” for “TMEM97”
[10] = target: 5-hydroxytryptamine receptor 1D (Homo sapiens, UniProt P28221); test: as §1, with “HTR1D” for “TMEM97”
[11] = target: 5-hydroxytryptamine receptor 2B (Homo sapiens, UniProt P41595); test: as §1, with “HTR2B” for “TMEM97”
D(3) dopamine receptor = D(3) dopamine receptor (Homo sapiens, UniProt P35462); test: as §1, with “DRD3” for “TMEM97”
[12] = target: 5-hydroxytryptamine receptor 7 (Homo sapiens, UniProt P34969); test: as §1, with “HTR7” for “TMEM97”
D(4) dopamine receptor = target: T2, D(4) dopamine receptor (Homo sapiens, UniProt P21917); test: as §1, with “DRD4” for “TMEM97”
T2 sequence (P21917 whole entry): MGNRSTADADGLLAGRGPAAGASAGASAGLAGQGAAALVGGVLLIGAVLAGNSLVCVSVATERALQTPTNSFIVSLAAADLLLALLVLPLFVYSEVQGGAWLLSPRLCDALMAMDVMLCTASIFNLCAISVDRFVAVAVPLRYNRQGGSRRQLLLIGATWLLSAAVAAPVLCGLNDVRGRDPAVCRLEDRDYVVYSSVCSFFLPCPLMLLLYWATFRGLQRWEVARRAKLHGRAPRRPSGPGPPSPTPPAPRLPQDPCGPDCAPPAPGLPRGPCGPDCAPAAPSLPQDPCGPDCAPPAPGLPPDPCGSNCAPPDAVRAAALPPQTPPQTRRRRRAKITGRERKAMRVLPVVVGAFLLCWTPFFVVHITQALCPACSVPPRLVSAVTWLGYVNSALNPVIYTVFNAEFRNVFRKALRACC

[13] = target: Sigma non-opioid intracellular receptor 1 (Homo sapiens, UniProt Q99720); test: as §1, with “SIGMAR1” for “TMEM97”
[14] = target: Sodium-dependent serotonin transporter (Homo sapiens, UniProt P31645); test: as §1, with “SLC6A4” for “TMEM97”
[15] = target: T3, 5-hydroxytryptamine receptor 2C (Homo sapiens, UniProt P28335); test: as §1, with “HTR2C” for “TMEM97”
T3 sequence (P28335 whole entry): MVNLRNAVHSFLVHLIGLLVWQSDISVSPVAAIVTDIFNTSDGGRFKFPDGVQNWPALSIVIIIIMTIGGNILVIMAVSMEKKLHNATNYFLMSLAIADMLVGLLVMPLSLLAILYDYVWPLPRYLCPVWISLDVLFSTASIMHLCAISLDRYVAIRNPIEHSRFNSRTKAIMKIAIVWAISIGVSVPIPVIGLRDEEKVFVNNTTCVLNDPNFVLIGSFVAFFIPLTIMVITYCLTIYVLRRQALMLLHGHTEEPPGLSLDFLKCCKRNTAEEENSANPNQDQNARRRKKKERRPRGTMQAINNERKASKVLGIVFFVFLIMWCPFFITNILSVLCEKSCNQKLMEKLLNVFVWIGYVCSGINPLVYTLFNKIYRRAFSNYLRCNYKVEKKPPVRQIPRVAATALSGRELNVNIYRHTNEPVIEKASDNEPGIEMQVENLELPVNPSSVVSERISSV

[16] = target: 5-hydroxytryptamine receptor 2A (Homo sapiens, UniProt P28223); test: as §1, with “HTR2A” for “TMEM97”
[17] = target: Sodium-dependent dopamine transporter (Homo sapiens, UniProt Q01959); test: as §1, with “SLC6A3” for “TMEM97”
[18] = target: T4, Alpha-1B adrenergic receptor (Homo sapiens, UniProt P35368); test: as §1, with “ADRA1B” for “TMEM97”
T4 sequence (P35368 whole entry): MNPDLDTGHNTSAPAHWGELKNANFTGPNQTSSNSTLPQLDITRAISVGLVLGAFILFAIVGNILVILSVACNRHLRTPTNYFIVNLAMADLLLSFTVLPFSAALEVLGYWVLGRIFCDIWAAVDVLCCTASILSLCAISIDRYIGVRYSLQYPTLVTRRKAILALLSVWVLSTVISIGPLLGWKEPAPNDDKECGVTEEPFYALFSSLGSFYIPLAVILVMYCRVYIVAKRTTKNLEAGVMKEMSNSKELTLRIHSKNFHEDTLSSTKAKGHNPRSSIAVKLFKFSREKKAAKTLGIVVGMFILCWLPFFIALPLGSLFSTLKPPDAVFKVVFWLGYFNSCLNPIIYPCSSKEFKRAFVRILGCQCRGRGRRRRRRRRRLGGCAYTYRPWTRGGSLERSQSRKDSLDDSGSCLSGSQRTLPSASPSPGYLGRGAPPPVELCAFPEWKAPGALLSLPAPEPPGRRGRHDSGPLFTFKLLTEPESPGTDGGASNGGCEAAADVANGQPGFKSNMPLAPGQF

[19] = target: T5, Alpha-1D adrenergic receptor (Homo sapiens, UniProt P25100); test: as §1, with “ADRA1D” for “TMEM97”
T5 sequence (P25100 whole entry): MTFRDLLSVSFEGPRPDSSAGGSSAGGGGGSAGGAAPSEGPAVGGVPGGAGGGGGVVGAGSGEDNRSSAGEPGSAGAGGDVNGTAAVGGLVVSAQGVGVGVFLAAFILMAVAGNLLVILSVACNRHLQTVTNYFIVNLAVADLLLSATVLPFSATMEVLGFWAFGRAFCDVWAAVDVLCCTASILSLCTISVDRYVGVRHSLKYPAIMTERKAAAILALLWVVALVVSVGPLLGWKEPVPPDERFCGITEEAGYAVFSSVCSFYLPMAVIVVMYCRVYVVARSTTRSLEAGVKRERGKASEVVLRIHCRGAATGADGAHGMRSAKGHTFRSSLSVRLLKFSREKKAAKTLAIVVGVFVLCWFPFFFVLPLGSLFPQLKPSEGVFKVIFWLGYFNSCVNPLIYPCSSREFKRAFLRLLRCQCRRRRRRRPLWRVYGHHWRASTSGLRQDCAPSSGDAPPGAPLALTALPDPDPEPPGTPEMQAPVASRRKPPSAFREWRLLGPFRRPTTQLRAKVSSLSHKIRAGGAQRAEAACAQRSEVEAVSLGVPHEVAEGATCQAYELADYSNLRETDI

[20] = target: T6, Alpha-1A adrenergic receptor (Homo sapiens, UniProt P35348); test: as §1, with “ADRA1A” for “TMEM97”
T6 sequence (P35348 whole entry): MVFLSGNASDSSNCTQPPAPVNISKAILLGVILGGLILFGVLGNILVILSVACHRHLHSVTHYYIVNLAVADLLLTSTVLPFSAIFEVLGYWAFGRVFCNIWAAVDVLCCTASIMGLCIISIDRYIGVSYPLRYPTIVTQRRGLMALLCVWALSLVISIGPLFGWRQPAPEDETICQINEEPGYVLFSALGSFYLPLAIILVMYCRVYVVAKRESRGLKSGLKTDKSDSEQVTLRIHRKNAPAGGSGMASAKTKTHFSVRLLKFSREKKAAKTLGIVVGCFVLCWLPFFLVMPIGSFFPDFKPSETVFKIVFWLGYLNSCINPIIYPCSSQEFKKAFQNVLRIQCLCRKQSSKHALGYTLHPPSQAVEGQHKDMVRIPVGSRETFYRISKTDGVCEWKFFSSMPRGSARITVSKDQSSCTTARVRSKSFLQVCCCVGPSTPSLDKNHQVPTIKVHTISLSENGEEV

Sequence of Sodium-dependent noradrenaline transporter (P23975 whole entry): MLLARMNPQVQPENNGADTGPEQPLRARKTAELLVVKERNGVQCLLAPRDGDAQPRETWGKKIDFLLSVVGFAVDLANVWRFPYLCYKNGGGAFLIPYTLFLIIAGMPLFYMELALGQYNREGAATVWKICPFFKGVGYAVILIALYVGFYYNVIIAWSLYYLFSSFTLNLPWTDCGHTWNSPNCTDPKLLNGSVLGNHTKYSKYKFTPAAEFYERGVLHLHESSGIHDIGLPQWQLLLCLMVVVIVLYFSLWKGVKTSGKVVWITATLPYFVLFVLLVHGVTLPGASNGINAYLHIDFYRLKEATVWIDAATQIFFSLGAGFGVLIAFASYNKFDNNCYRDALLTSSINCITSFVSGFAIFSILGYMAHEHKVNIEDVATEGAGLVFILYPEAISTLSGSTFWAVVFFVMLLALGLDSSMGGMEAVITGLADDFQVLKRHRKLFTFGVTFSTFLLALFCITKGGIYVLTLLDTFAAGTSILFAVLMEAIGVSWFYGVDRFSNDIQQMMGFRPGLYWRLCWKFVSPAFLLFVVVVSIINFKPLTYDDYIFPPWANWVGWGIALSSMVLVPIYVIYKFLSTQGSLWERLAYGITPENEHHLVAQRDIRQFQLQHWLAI
Sequence of Sigma intracellular receptor 2 (Q5BJF2 whole entry): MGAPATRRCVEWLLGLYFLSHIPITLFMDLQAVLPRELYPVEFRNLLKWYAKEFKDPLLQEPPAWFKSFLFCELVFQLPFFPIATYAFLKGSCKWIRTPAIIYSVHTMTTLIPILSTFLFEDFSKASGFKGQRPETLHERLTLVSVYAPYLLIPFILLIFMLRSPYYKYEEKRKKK
Sequence of Beta-2 adrenergic receptor (P07550 whole entry): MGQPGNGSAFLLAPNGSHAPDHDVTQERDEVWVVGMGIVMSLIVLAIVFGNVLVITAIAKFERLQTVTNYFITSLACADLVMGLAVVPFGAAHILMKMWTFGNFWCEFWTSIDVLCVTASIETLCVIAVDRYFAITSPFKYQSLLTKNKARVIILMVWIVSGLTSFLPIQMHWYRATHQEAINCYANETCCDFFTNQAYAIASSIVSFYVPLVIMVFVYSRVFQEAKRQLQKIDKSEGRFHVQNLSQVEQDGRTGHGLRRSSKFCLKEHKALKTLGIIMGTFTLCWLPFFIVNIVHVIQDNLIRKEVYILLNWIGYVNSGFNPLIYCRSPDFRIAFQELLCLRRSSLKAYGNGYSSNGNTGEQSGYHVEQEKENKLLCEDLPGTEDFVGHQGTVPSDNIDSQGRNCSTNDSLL
Sequence of Sodium-dependent serotonin transporter (P31645 whole entry): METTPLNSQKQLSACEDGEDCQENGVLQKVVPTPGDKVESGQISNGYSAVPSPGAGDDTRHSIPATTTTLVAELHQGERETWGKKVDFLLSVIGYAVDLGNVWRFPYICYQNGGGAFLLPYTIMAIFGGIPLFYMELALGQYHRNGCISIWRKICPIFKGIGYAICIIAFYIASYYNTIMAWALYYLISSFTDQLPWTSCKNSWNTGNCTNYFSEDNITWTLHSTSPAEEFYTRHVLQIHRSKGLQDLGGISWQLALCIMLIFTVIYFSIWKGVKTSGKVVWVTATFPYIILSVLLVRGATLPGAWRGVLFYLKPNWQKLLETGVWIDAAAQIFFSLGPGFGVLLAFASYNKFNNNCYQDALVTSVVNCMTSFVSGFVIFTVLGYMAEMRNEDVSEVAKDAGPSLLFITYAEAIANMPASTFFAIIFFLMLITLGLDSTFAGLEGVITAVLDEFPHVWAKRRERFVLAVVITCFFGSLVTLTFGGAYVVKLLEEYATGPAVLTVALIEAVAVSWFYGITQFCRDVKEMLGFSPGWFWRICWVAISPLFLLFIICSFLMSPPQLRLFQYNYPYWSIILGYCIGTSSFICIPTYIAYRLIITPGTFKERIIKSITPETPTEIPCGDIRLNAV
Sequence of 5-hydroxytryptamine receptor 1D (P28221 whole entry): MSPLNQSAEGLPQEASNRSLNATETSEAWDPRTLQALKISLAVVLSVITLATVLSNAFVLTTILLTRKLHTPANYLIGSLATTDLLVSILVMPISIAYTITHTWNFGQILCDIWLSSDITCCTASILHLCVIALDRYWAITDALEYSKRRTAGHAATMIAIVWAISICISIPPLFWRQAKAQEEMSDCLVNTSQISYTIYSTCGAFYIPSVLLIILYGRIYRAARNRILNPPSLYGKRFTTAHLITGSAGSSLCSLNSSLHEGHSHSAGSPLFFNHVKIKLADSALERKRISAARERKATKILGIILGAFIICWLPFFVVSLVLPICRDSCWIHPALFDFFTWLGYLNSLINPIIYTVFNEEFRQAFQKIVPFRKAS
Sequence of 5-hydroxytryptamine receptor 2B (P41595 whole entry): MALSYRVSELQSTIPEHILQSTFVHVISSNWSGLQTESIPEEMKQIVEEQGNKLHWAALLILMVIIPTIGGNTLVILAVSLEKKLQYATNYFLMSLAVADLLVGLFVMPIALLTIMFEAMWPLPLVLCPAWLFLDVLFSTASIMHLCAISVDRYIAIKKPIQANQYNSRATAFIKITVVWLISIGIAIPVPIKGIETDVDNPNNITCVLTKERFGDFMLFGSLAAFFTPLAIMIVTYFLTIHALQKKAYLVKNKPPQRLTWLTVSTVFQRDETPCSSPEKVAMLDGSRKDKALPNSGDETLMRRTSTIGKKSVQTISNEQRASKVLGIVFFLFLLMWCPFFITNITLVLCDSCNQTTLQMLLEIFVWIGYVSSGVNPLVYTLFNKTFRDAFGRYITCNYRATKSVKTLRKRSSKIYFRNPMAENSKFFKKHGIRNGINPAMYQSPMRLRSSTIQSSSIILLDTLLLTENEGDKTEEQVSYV
Sequence of 5-hydroxytryptamine receptor 5A (P47898 whole entry): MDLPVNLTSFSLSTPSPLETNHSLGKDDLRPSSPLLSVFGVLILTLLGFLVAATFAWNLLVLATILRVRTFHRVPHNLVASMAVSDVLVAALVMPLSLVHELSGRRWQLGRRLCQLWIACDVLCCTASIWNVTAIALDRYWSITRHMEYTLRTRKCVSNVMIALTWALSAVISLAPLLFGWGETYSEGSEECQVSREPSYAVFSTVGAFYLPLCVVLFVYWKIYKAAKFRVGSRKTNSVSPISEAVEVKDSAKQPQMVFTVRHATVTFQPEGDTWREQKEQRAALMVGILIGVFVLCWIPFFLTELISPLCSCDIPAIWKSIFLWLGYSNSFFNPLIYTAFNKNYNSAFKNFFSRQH
Sequence of 5-hydroxytryptamine receptor 6 (P50406 whole entry): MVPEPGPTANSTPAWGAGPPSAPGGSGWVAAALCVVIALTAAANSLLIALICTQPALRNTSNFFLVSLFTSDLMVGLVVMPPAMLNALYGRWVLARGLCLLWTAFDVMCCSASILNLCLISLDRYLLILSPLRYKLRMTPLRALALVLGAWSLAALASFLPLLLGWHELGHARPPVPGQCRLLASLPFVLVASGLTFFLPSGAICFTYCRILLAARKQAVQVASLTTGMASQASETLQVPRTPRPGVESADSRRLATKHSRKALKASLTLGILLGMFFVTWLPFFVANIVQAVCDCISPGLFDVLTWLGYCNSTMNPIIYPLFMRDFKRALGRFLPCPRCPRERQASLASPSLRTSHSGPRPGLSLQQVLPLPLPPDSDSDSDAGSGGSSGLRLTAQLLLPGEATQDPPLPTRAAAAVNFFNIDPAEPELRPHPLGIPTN
Sequence of 5-hydroxytryptamine receptor 2A (P28223 whole entry): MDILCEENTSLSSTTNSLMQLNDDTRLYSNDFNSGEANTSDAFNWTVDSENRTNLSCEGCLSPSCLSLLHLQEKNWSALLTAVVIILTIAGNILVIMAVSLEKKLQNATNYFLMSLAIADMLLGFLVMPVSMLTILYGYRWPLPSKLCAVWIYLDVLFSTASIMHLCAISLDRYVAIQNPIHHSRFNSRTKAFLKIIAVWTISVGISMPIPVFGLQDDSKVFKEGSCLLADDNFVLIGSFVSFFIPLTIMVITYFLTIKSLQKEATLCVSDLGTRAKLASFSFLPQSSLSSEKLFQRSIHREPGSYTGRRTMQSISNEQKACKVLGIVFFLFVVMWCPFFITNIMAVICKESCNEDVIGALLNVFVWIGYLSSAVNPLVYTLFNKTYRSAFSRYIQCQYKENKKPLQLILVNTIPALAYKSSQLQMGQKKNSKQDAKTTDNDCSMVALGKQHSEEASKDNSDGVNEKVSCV
Sequence of D(3) dopamine receptor (P35462 whole entry): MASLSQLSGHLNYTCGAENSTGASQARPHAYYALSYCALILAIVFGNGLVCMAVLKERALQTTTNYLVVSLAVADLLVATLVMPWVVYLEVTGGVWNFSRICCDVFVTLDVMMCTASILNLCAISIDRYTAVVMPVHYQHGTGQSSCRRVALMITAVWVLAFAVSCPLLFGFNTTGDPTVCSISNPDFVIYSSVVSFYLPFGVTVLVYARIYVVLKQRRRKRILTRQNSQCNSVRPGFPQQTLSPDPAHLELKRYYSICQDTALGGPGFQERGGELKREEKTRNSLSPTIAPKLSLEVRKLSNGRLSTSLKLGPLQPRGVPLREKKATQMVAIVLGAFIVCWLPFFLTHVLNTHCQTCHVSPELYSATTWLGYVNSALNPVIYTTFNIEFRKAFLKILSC
Sequence of 5-hydroxytryptamine receptor 1E (P28566 whole entry): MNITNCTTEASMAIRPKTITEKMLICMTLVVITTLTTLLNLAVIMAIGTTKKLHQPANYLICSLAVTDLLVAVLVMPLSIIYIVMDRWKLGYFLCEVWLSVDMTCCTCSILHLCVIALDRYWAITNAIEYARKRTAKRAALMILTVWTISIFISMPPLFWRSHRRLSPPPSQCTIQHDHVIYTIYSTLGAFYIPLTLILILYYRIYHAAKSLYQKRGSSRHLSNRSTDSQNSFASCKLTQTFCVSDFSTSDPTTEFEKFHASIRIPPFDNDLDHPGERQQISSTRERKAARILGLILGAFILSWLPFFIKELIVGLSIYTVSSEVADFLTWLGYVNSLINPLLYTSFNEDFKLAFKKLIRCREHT
Sequence of Translocator protein (P30536 whole entry): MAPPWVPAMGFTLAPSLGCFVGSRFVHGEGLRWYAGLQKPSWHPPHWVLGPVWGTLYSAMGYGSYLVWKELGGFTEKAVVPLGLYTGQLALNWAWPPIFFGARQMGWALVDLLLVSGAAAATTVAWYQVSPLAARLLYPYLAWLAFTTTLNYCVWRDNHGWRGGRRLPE

SMILES	Ki [1]	Ki [3]	Ki [6]	Ki [10]	Ki [11]	Ki (D(3) dopamine receptor)	Ki [14]	Ki [15]	Ki [16]	Ki [5]	Ki [8]	other results
NCCc1c[nH]c2ccc(C(N)=O)cc12	4570 nM		2650 nM							8.64 nM	325 nM	Ki [4]: 11.2 nM; Ki [7]: 2160 nM; Ki (D(2) dopamine receptor): > 10000 nM; Ki [9]: 949 nM
CS(=O)(=O)NC[C@H]1CC[C@H](Nc2nc3c(s2)CCSc2ccccc2-3)CC1	1720 nM	7540 nM		1610 nM	400 nM	498 nM				1040 nM		
N#Cc1c[nH]c2c(C(=O)N3CCN(CCc4ccc(F)cc4)CC3)cccc12 [PRUVANSERIN]	1180 nM	> 10000 nM	2520 nM	588 nM	1040 nM		1100 nM	1470 nM	2.64 nM			Ki [12]: 2390 nM; Ki (D(4) dopamine receptor): 181 nM; Ki [13]: 178 nM

The next molecules have a lower Ki [1] than those just listed; values first:

Ki [1]	Ki [3]	Ki [6]	Ki [10]	Ki [11]	Ki (D(3) dopamine receptor)	Ki [14]	Ki [15]	Ki [16]	SMILES	Ki [5]	Ki [8]	other results
242 nM	5210 nM								CN(C)S(=O)(=O)c1ccc(NC(=S)N2CCC(C(O)(c3ccccc3)c3ccccc3)CC2)cc1			Ki [2]: 3500 nM; Ki (Translocator protein): 969 nM
107 nM	106 nM	569 nM			1340 nM	770 nM	1800 nM	2020 nM	CCc1cc2c(cc1CC)CC(NC[C@H](O)c1ccc(O)c3[nH]c(=O)ccc13)C2 [INDACATEROL]		> 10000 nM	Ki [17]: 75 nM; Ki [18]: 4320 nM; Ki [19]: 731 nM; Ki [20]: 356 nM
